In brackets after ≈: the same amount, converted by molar mass. Entries after “also recorded” stand apart in the source; their conditions may differ.
Key:
Format in all cases: physicochemical
[1] = Solubility in organic solvents, potency measurement by HPLC
Description: In a glass vial, N-(4-{4-amino-7-[1-(2-hydroxyethyl)-1H-pyrazol-4-yl]thieno[3,2-c]pyridin-3-yl}phenyl)-N′-(3-fluorophenyl)urea free base (501 mg, 1.02 mmol) was slurried in 20 ml of THF using a magnetic stir bar. The free base was converted to the HCl salt in-situ by addition of 5.0 ml of aqueous 0.207 N HCl. Docusate sodium (465 mg, 1.05 mmol) was added and the mixture was stirred until all solids dissolved. Solvent was removed by rotoevaporation. Acetone, 15 ml, was added to the flask with mixing until most of the solid has dissolved, resulting in a suspension of NaCl particles. The sample was then filtered through a 0.45 µm syringe filter (to remove the NaCl particles) followed by rotoevaporation to remove acetone. The sample was placed on a vacuum line to dry for 2 hours. The above step was repeated with 15 ml acetone and filtration through a 0.22 µm filter. After removing the acetone by rotoevaporation, the sample was dried under vacuum overnight. The sample appears to be amorphous to the naked eye. […] Solubilities were determined by potency measurements using high-performance liquid chromatography (HPLC).

[2] = Solubility in SEDDs (lipid) vehicle, saturated solution
Description: A saturated solution of the docusate salt in the SEDDs vehicle and a saturated solution of the tosylate salt in the SEDDs vehicle were prepared. The SEDDs vehicle was 15 wt % Capmul® MCM C10, 50 wt % Polysorbate 80, and 35 wt % Miglyol 812.

[3] = Stability, droplet size (DLS) and appearance of the SEDD emulsion after 1:9 dilution in water
Description: The docusate:SEDD concentrate was diluted in water at a 1:9 ratio, resulting in an emulsion at a concentration of 2.3 mg/mL. […] The emulsion was stable at native pH 4 for more than 2 weeks at room temperature, with no significant change in particle size analysis by dynamic light scattering (DLS).
The tosylate:SEDD concentrate was diluted in water at a 1:9 ratio, resulting in an emulsion at a concentration of 2.3 mg/mL.

[4] = Microcentrifuge dissolution in simulated gastric and intestinal media (GB/IB transfer test); settings: for dissolution in simulated gastric media: 0.01N HCl, pH 2.0, 1000 μg/mL; for dissolution in simulated intestinal media (IB): 0.5 wt % SIF powder in PBS, pH 6.5, 500 μg/mL
Description: Microcentrifuge dissolution of salts in simulated gastric and intestinal media
Dissolution of tosylate and docusate salts in simulated GB/IB transfer dissolution test was measured and compared to free base. The simulated gastric media was 0.01N HCl, pH 2.0 (concentration 1000 μg/mL), and the simulated intestinal media was 0.5 wt % SIF powder in PBS, pH 6.5 (500 μg/mL).
Once the pH is raised to intestinal pH, the drug converts back to a free base that precipitates.

Solubility in water = settings: pH 7.4
[5] = 15 wt % Capmul MCM C10, 50 wt % Polysorbate 80, 35 wt % Miglyol 812

Row | solubility in tetrahydrofuran (THF) ([1]; THF) | solubility in acetone ([1]; acetone) | solubility in dichloromethane ([1]; dichloromethane) | solubility in ethanol ([1]; ethanol) | solubility in the SEDD vehicle [2, 5] | solubility in lipid vehicles (in words) ([2]; lipid vehicles) | dissolution in simulated gastric media [4] | dissolution in simulated intestinal media (IB) [4] | solubility in water (Solubility in water) | solubility ([1]; organic solvent or mixture) | solubility ([2]; SEDDs vehicle, oil or lipid, thermodynamic from solid, 15 wt % Capmul MCM C10, 50 wt % Polysorbate 80, 35 wt % Miglyol 812, read-out: solubility in the SEDD vehicle) | Compound | stability in emulsions (in words) [3]
1 |  |  |  |  | 2.7 mg/mL (≈ 5.53 mM) |  | significant solubility at the lower pH | precipitates | less than 30 ng/ml |  |  | Nc1ncc(-c2cnn(CCO)c2)c2scc(-c3ccc(NC(=O)Nc4cccc(F)c4)cc3)c12 [free base, N-(4-{4-amino-7-[1-(2-hydroxyethyl)-1H-pyrazol-4-yl]thieno[3,2-c]pyridin-3-yl}phenyl)-N′-(3-fluorophenyl)urea free base] | 
2 |  |  |  |  |  |  | significant solubility at the lower pH | precipitates |  | > 25 mg/mL | 22 mg/mL | Cc1ccc(S(=O)(=O)O)cc1.Nc1ncc(-c2cnn(CCO)c2)c2scc(-c3ccc(NC(=O)Nc4cccc(F)c4)cc3)c12 [tosylate salt, N-(4-{4-amino-7-[1-(2-hydroxyethyl)-1H-pyrazol-4-yl]thieno[3,2-c]pyridin-3-yl}phenyl)-N′-(3-fluorophenyl)urea tosylate salt] | 

Row | Compound | solubility in tetrahydrofuran (THF) ([1]; THF) | solubility in acetone ([1]; acetone) | solubility in dichloromethane ([1]; dichloromethane) | solubility in ethanol ([1]; ethanol) | solubility in the SEDD vehicle [2, 5] | solubility in lipid vehicles (in words) ([2]; lipid vehicles) | dissolution in simulated gastric media [4] | dissolution in simulated intestinal media (IB) [4] | solubility in water (Solubility in water) | solubility ([1]; organic solvent or mixture) | solubility ([2]; SEDDs vehicle, oil or lipid, thermodynamic from solid, 15 wt % Capmul MCM C10, 50 wt % Polysorbate 80, 35 wt % Miglyol 812, read-out: solubility in the SEDD vehicle) | stability in emulsions (in words) [3]
3 | CCCCC(CC)COC(=O)CC(C(=O)OCC(CC)CCCC)S(=O)(=O)O.Nc1ncc(-c2cnn(CCO)c2)c2scc(-c3ccc(NC(=O)Nc4cccc(F)c4)cc3)c12 [docusate salt, N-(4-{4-amino-7-[1-(2-hydroxyethyl)-1H-pyrazol-4-yl]thieno[3,2-c]pyridin-3-yl}phenyl)-N′-(3-fluorophenyl)urea docusate salt] | greater than 45 mg/ml | > 47 mg/mL | > 75 mg/mL | > 51 mg/mL | 23 mg/mL | high solubility in lipid vehicles | does not dissolve in acidic pH | significantly higher solubility profile during the first 90 minutes in IB than either free base or the tosylate salt; also recorded: appreciable solubility in IB solution |  |  |  | remain stable in emulsions over a period of several days
